What all share (format): functional, cell-based
The test system of assay [1] is K562. As to the kind of experiment: Cytotoxicity against human K562 cells assessed as growth inhibition after 72 hrs by MTT assay. Conditions: K562, 72 h. Background: Tetrazolium dyes change colour on reduction, which living cells bring about.
For assay [2], the system named is SUP-T1. The experiment in a line: Cytotoxicity against human SupT1 cells assessed as growth inhibition after 72 hrs by MTT assay. Conditions: SUP-T1, 72 h.
Assay [3] concerns U-937. The experiment in a line: Cytotoxicity against human U937 cells assessed as growth inhibition after 72 hrs by MTT assay. Conditions: U-937, 72 h.
Assay [4] deals with MOLT-4. The experiment in a line: Cytotoxicity against human MOLT4 cells assessed as growth inhibition after 72 hrs by MTT assay. As to conditions: MOLT-4, 72 h.
Assay [5] relates to K562. The experiment in a line: Cytotoxicity against human K562 cells assessed as growth inhibition at 20 ug/ml after 72 hrs by MTT assay.
The test system of assay [6] is U-937. The experiment in a line: Cytotoxicity against human U937 cells assessed as growth inhibition at 20 ug/ml after 72 hrs by MTT assay.

Activity calls are given as the source filed them. The calls are words filed in the database; no cut-off is given here.

One may read the IC50 as the concentration that inhibits the measured activity by half. Take `COc1cccc2c1C(=O)c1c(O)c3c(c(O)c1C2=O)C[C@@](O)(C(=O)CO)C[C@@H]3O[C@H]1C[C@H](N)[C@H](O)[C@H](C)O1` [DOXORUBICIN]: the IC50 amounted to 280 nM in assay [1], 0.04 µM in assay [2] and 420 nM in assay [3].

With `C=C(CC[C@@H](C)[C@H]1CC[C@H]2[C@@H]3CC=C4C[C@@H](O)CC[C@]4(O)[C@H]3CC[C@]12C)C(C)C`, the IC50 in assay [4] was found to be 18.3 µM; in assay [2] it was 25.5 µM. For the same molecule, the “growth inhibition (GI)” value in assay [5] and in assay [6] was “inactive” each time.
